Assay results reported in patent US10730887B2, “Compound containing tricyclic heteroaryl group” (Hangzhou Innogate Pharma Co., Ltd., priority 2016, dated 2020).

Target: T1, FLT3 (Homo sapiens, UniProt P36888)
T1 sequence (P36888 27-993): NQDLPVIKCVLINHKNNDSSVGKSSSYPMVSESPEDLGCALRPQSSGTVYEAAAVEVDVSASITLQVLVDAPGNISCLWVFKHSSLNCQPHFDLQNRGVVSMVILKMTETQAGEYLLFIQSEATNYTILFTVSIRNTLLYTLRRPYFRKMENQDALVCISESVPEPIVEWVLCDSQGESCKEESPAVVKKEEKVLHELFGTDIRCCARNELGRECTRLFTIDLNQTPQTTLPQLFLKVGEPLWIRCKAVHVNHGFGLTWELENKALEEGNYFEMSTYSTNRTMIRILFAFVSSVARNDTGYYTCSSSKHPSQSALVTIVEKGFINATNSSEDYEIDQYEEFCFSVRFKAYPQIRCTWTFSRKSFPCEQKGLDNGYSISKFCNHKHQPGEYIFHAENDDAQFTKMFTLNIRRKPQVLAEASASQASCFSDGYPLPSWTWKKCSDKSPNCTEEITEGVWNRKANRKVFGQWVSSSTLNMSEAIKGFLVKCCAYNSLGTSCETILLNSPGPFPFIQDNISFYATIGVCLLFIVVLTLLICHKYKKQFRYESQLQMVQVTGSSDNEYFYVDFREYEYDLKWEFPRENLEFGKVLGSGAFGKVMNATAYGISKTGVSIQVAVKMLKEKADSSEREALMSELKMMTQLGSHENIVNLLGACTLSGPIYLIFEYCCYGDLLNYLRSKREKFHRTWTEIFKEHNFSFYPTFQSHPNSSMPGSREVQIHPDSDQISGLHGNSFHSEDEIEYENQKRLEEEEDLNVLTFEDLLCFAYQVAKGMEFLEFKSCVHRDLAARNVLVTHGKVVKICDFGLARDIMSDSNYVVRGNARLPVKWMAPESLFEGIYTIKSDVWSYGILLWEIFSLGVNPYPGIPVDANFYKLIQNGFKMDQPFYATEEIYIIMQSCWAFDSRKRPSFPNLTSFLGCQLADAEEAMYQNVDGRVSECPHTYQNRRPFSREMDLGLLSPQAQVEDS
Assay: FLT3 kinase activity inhibition, Caliper mobility shift assay
Assay type: biochemical
Description: FLT3 protein kinase activity was measured using the Caliper mobility shift assay. The compound was dissolved in DMSO and diluted with a kinase buffer (50 mM HEPES, pH 7.5, 0.0015% Brij-35, 2 mM DTT), and 5 μL of a 5-fold final concentration of the compound (10% DMSO) was added to a 384-well plate. After adding 10 μL of 2.5-fold FLT3 enzyme solution, incubate for 10 minutes at room temperature, and then add 10 μL of a 2.5-fold substrate (FAM-labeled polypeptide and ATP) solution. After incubation at 28° C. for 60 minutes, the reaction was stopped by adding 25 μL of stop solution (100 mM HEPES, 0.015% Brij-35, 0.2% Coating Reagent #3, 50 mM EDTA, pH 7.5). Conversion rate data was read on a Caliper EZ Reader II (Caliper Life Sciences). The conversion rate was converted into inhibition rate data (% inhibition rate=(max−conversion rate)/(max−min)*100). Where max is the conversion of the DMSO control and min is the conversion of the enzyme-free control Curves were plotted with compound concentration and inhibition rate on the horizontal and vertical coordinates, and the curve was fitted using XLFit excel add-in version 4.3.1 software and IC50 was calculated.

Row | IC50 | SMILES
1 | < 10 nM | CCc1nc(C(N)=O)c(Nc2ccc3c(c2)OC[C@H]2CN(CC(F)(F)F)CCN32)nc1NC1CCOCC1 [Compound D3R]
2 | < 1 nM | CCc1nc(C(N)=O)c(Nc2ccc3c(c2)OC[C@H]2CN(C4CC4)CCN32)nc1NC1CCOCC1 [Compound D4R]
3 | < 10 nM | CCc1nc(C(N)=O)c(Nc2ccc3c(c2)OC[C@@H]2CN(C)CC(=O)N32)nc1NC1CCOCC1 [Compound D5S]
